This passage reports AC50 results from ChEMBL document CHEMBL5291721, “A preclinical secondary pharmacology resource illuminates target-adverse drug reaction associations of marketed drugs” (Nat Commun, 2023).

What is called AC50 is the midpoint of the concentration-response curve, whichever way the signal moves.

Experiment [1] addresses T1, Alpha-2A adrenergic receptor (Homo sapiens, UniProt P08913).
T1 sequence (P08913 whole entry): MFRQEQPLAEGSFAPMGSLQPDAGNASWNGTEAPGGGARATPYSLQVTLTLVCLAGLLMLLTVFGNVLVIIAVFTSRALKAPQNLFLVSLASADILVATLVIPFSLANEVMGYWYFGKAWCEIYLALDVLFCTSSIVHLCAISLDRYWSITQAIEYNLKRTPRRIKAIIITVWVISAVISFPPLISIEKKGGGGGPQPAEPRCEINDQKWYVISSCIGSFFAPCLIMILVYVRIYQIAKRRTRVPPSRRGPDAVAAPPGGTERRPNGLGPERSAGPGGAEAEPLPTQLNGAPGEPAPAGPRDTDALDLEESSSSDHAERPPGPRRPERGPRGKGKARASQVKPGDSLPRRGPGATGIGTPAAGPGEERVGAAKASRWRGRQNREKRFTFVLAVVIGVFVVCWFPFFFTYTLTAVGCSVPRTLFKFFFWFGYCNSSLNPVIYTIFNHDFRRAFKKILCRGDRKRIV

Experiment [2] concerns the target D(1A) dopamine receptor (Homo sapiens, UniProt P21728).
Experiment [3] deals with D(3) dopamine receptor (Homo sapiens, UniProt P35462).
Experiment [4] concerns the target Histamine H3 receptor (Homo sapiens, UniProt Q9Y5N1).
Experiment [5] has as its target 3',5'-cyclic-AMP phosphodiesterase 4A (Homo sapiens, UniProt P27815). Format: functional.
Experiment [6] has as its target Prostaglandin G/H synthase 1 (Homo sapiens, UniProt P23219). Format: functional.
In experiment [7] the target is T2, Thromboxane A2 receptor (Homo sapiens, UniProt P21731).
T2 sequence (P21731 whole entry): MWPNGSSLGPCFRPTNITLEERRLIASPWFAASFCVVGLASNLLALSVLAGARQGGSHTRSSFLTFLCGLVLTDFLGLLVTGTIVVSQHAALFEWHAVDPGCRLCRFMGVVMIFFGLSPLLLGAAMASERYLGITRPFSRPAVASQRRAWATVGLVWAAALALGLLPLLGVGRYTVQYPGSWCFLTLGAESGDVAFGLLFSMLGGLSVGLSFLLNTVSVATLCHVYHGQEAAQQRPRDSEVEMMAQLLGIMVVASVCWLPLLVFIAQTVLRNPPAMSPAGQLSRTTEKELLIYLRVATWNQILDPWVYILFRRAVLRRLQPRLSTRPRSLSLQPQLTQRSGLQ
Type of experiment: functional, cell-based.

In experiment [8] the target is T2, Thromboxane A2 receptor. Type of experiment: functional, cell-based. The source holds these as a separate data set.

The structures appear in SMILES notation. Where only a bound is given, the exact number is not on record here.
Further: assay procedure not described here.

Chain of Prostaglandin G/H synthase 1 (P23219 whole entry): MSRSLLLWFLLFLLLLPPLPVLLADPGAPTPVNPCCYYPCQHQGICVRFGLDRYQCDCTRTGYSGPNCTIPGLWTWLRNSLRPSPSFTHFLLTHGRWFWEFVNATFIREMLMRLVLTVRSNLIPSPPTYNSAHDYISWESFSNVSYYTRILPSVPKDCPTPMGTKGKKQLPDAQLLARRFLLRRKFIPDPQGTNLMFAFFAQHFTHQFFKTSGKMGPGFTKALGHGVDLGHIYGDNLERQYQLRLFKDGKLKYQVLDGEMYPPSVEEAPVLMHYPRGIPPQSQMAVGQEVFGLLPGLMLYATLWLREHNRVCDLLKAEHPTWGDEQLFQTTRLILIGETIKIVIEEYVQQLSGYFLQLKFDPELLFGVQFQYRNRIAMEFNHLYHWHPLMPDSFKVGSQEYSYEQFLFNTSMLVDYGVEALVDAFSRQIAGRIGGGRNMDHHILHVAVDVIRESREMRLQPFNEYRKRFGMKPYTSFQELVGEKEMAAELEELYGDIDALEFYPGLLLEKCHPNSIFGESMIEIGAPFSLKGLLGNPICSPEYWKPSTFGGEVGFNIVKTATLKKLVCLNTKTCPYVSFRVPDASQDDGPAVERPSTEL
Chain of Histamine H3 receptor (Q9Y5N1 whole entry): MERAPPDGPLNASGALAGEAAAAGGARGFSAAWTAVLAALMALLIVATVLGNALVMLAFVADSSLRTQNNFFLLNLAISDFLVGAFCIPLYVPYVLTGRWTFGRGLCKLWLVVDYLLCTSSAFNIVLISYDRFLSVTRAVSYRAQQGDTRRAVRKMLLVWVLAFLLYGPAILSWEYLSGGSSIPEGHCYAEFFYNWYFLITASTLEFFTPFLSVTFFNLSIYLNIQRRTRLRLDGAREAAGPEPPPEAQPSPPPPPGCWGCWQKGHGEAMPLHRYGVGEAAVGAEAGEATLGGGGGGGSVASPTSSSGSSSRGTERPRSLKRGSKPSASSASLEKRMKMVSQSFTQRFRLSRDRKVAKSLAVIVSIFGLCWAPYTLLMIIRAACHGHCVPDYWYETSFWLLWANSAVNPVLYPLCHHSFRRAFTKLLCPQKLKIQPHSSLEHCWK
Chain of D(3) dopamine receptor (P35462 whole entry): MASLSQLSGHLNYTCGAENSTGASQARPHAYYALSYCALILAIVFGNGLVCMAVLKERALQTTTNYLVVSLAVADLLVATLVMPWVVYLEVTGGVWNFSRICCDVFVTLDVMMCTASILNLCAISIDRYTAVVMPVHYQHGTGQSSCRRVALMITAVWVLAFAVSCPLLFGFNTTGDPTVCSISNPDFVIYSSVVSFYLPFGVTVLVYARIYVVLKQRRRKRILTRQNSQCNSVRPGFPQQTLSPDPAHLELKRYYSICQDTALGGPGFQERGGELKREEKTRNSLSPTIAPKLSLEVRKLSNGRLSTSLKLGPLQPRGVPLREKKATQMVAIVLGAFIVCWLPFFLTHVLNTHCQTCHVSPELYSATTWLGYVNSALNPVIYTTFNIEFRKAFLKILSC
Chain of D(1A) dopamine receptor (P21728 whole entry): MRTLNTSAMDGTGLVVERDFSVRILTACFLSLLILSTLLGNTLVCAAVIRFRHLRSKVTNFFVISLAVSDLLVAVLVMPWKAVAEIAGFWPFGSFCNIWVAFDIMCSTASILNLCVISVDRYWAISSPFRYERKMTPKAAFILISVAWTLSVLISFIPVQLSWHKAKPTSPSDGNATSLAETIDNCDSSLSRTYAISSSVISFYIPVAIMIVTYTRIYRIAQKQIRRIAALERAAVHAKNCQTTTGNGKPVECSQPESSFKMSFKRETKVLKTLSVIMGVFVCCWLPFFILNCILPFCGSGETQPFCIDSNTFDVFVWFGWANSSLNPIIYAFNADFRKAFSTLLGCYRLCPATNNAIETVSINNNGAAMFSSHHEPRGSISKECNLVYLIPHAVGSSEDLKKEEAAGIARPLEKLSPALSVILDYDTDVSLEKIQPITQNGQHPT
Chain of 3',5'-cyclic-AMP phosphodiesterase 4A (P27815 whole entry): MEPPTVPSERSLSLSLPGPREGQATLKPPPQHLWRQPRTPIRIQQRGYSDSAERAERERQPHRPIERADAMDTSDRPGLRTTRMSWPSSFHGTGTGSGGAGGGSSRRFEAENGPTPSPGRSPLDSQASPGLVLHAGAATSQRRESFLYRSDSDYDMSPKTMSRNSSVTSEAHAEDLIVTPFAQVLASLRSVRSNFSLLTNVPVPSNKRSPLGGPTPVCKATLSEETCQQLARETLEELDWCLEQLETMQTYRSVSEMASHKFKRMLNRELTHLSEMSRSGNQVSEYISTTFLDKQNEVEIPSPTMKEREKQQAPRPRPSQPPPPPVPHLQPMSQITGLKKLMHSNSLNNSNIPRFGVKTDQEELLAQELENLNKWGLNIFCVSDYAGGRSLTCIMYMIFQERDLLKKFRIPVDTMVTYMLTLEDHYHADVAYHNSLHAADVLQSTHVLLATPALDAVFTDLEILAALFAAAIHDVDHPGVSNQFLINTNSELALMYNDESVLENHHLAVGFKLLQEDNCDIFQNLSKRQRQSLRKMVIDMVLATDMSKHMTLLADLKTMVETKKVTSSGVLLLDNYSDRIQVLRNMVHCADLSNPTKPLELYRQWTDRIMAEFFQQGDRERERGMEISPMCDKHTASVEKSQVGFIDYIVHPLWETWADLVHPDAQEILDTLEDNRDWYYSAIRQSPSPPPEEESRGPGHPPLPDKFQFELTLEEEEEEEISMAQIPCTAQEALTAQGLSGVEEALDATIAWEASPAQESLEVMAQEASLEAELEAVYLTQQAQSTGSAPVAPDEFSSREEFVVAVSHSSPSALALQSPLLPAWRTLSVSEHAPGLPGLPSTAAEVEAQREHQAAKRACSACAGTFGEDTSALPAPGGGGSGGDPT

As to `O=C1CC[C@@]2(O)[C@H]3Cc4ccc(O)c5c4[C@@]2(CCN3CC2CC2)[C@H]1O5` [NALTREXONE], the concentration at half-maximal activity (AC50) in experiment [1], in experiment [2], in experiment [3], in experiment [4], in experiment [5] and in experiment [6] was greater than 30 µM in each case. The AC50 in experiment [7] and in experiment [8] was greater than 30 µM in each case.
Take `O=C1[C@H](CC[C@H](O)c2ccc(F)cc2)[C@@H](c2ccc(O)cc2)N1c1ccc(F)cc1` [EZETIMIBE]: the half-maximal activity concentration (AC50) in experiment [1] is greater than 30 µM; in experiment [2], 29.4 µM; in experiment [3], greater than 30 µM; in experiment [4] it was greater than 30 µM; in experiment [5], greater than 30 µM; in experiment [6] it was 6.72 µM. Further, the AC50 in experiment [7] was greater than 30 µM; in experiment [8], 7.68 µM.
In the case of `CCO/N=C(\C(=O)N[C@@H]1C(=O)N2C(C(=O)[O-])=C(Sc3nc(-c4cc[n+](C)cc4)cs3)CS[C@H]12)c1nsc(N)n1` [CEFTAROLINE], the AC50 in experiment [1], in experiment [2], in experiment [3], in experiment [4], in experiment [5] and in experiment [6] was greater than 30 µM in each case. Further, the AC50 in experiment [7] and in experiment [8] was greater than 30 µM throughout.
With `C[N+](C)(C)CCCCCCCCCC[N+](C)(C)C` [DECAMETHONIUM], the AC50 in experiment [1], in experiment [2], in experiment [3], in experiment [4], in experiment [5] and in experiment [6] was greater than 30 µM in each case. Further, the AC50 in experiment [7] and in experiment [8] was greater than 30 µM throughout.
`Cc1cc2c(cc1CC(=O)c1sccc1S(=O)(=O)Nc1onc(C)c1Cl)OCO2` [SITAXENTAN]: the AC50 was greater than 30 µM in experiment [1]; greater than 30 µM in experiment [2]; greater than 30 µM in experiment [3]; greater than 30 µM in experiment [4]; 25 µM in experiment [5]; greater than 30 µM in experiment [6]. For the same molecule, the AC50 was greater than 30 µM in experiment [7] and greater than 10 µM in experiment [8].
In the case of `CCC(=O)O[C@H]1[C@H](O[C@@H]2[C@@H](C)[C@H](O[C@H]3C[C@@](C)(OC)[C@@H](O)[C@H](C)O3)[C@@H](C)C(=O)O[C@H](CC)[C@@](C)(O)[C@H](O)[C@@H](C)C(=O)[C@H](C)C[C@@]2(C)O)O[C@H](C)C[C@@H]1N(C)C` [ERYTHROMYCIN PROPIONATE], the AC50 in experiment [1] is greater than 30 µM; in experiment [2] it was greater than 30 µM; in experiment [3], 12.9 µM; in experiment [4] it was greater than 30 µM; in experiment [5] it was greater than 30 µM; in experiment [6] it was greater than 10 µM. Moreover, the AC50 in experiment [7] was greater than 30 µM; in experiment [8], greater than 3 µM.
As for `CC(O)CO` (stereo not drawn) [PROPYLENE GLYCOL], the AC50 in experiment [1], in experiment [2], in experiment [3], in experiment [4], in experiment [5] and in experiment [6] was greater than 30 µM each time. The AC50 in experiment [7] and in experiment [8] was greater than 30 µM throughout.
In the case of `O=C1c2ccccc2C(=O)C1C(=O)C(c1ccccc1)c1ccccc1` [DIPHENADIONE], the AC50 in experiment [1] was greater than 30 µM; in experiment [2] it was greater than 30 µM; in experiment [3] it was greater than 30 µM; in experiment [4], greater than 30 µM; in experiment [5], greater than 30 µM; in experiment [6] it was 20.4 µM. Also, the AC50 in experiment [7] came out at 7.02 µM; in experiment [8] it was 1.84 µM.
As for `CC(C)OC(=O)[C@H](C)N[P@](=O)(OC[C@H]1O[C@@H](n2ccc(=O)[nH]c2=O)[C@](C)(F)[C@@H]1O)Oc1ccccc1` [SOFOSBUVIR], the AC50 in experiment [1], in experiment [2], in experiment [3], in experiment [4], in experiment [5] and in experiment [6] was greater than 30 µM in each case. Further, the AC50 in experiment [7] and in experiment [8] was greater than 30 µM throughout.
As to `OC[C@@H](O)[C@@H](O)[C@H](O)[C@H](O)CO` [MANNITOL], the AC50 in experiment [1], in experiment [2], in experiment [3], in experiment [4], in experiment [5] and in experiment [6] was greater than 30 µM throughout. Also, the AC50 in experiment [7] and in experiment [8] was greater than 30 µM throughout.
Take `Sc1ncnc2nc[nH]c12` [MERCAPTOPURINE ANHYDROUS]: the AC50 in experiment [1] is greater than 30 µM; in experiment [2] it was greater than 30 µM; in experiment [3], greater than 30 µM; in experiment [4], greater than 30 µM; in experiment [5] it was greater than 30 µM; in experiment [6] it was 14.6 µM. Also, the AC50 in experiment [7] and in experiment [8] was greater than 30 µM each time.
Consider `Cc1cc(O)cc(C)c1Cl` [CHLOROXYLENOL], for which the AC50 in experiment [1], in experiment [2], in experiment [3], in experiment [4], in experiment [5] and in experiment [6] was greater than 30 µM in each case. Also, the values for the AC50 in experiment [7] and in experiment [8] were greater than 30 µM and 28.3 µM, respectively.
Turning to `Cc1ccc(O)c2ncccc12` [TILIQUINOL], the AC50 in experiment [1], in experiment [2], in experiment [3], in experiment [4], in experiment [5] and in experiment [6] was greater than 30 µM in each case. Further, the AC50 in experiment [7] and in experiment [8] was greater than 30 µM each time.
`CN(C)C(=O)Oc1ccc[n+](C)c1` [PYRIDOSTIGMINE]: the AC50 in experiment [1], in experiment [2], in experiment [3], in experiment [4], in experiment [5] and in experiment [6] was greater than 30 µM each time. In addition, the AC50 in experiment [7] and in experiment [8] was greater than 30 µM throughout.
As for `O=C(COc1ccc(Cl)cc1)N1CCN(Cc2ccc3c(c2)OCO3)CC1` [FIPEXIDE], the AC50 in experiment [1] is 11.1 µM; in experiment [2] it was greater than 30 µM; in experiment [3] it was 27.1 µM; in experiment [4], greater than 30 µM; in experiment [5] it was greater than 30 µM; in experiment [6], greater than 30 µM. For the same molecule, the AC50 in experiment [7] is greater than 30 µM; in experiment [8], 11.3 µM.
Turning to `CC(N/C(=N\C#N)Nc1ccncc1)C(C)(C)C` (stereo not drawn) [PINACIDIL ANHYDROUS], the AC50 in experiment [1] was greater than 30 µM; in experiment [2], greater than 30 µM; in experiment [3], greater than 30 µM; in experiment [4], greater than 10 µM; in experiment [5] it was greater than 30 µM; in experiment [6] it was greater than 30 µM. Besides, the AC50 in experiment [7] and in experiment [8] was greater than 30 µM in each case.
For the molecule `C#C[C@]1(O)CC[C@H]2[C@@H]3CCC4=CC(=O)CC[C@@H]4[C@H]3CC[C@@]21CC` [LEVONORGESTREL], the AC50 in experiment [1], in experiment [2], in experiment [3], in experiment [4], in experiment [5] and in experiment [6] was greater than 30 µM each time. The AC50 in experiment [7] and in experiment [8] was greater than 30 µM throughout.
For `C(=N\NC1=NCCN1)/c1c2ccccc2c(/C=N/NC2=NCCN2)c2ccccc12` [BISANTRENE], the AC50 was 11.6 µM in experiment [1]; 5.24 µM in experiment [2]; 5.96 µM in experiment [3]; greater than 30 µM in experiment [4]; greater than 30 µM in experiment [5]; greater than 30 µM in experiment [6]. For the same molecule, the AC50 in experiment [7] and in experiment [8] was greater than 30 µM throughout.
Regarding `CCOC(=O)c1ccc(O)cc1` [ETHYLPARABEN], the AC50 in experiment [1], in experiment [2], in experiment [3], in experiment [4], in experiment [5] and in experiment [6] was greater than 30 µM in each case. Besides, the AC50 in experiment [7] and in experiment [8] was greater than 30 µM throughout.
For the molecule `CC1(C)O[C@@H]2C[C@H]3[C@@H]4C[C@H](F)C5=CC(=O)CC[C@]5(C)[C@H]4[C@@H](O)C[C@]3(C)[C@]2(C(=O)CO)O1` [FLURANDRENOLIDE], the AC50 in experiment [1], in experiment [2], in experiment [3], in experiment [4], in experiment [5] and in experiment [6] was greater than 30 µM in each case. The AC50 in experiment [7] and in experiment [8] was greater than 30 µM each time.
With `C[N+]1(C)[C@@H]2C[C@@H](OC(=O)[C@H](CO)c3ccccc3)C[C@H]1[C@@H]1O[C@@H]12` [METHSCOPOLAMINE], the AC50 in experiment [1], in experiment [2], in experiment [3], in experiment [4], in experiment [5] and in experiment [6] was greater than 30 µM throughout. Moreover, the AC50 in experiment [7] and in experiment [8] was greater than 30 µM throughout.
